Reference: patent US4820695A, “C-20-dihydro-deoxy-(cyclic amino)-derivatives of macrolide antibiotics” (priority 1987, dated 1989)
Converted amounts (≈) assume the structure as drawn. Where two headings read alike, the source gives them in different places. Each block holds one compound with its values, some of them ahead of it.

How the values were obtained:
[1] = tested on: Streptococcus pyogenes C203; assay: ED50 in mice experimentally infected with S. pyogenes C203 (Table XI); format: in vivo; settings: Streptococcus pyogenes, doses given 1 and 4 hours postinfection, read-out: ED50
Outline: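 Protective ED50 (mg/kg × 2) was determined as the dose sparing half the animals. Test compound was given twice, at 1 and 4 hours after experimental S. pyogenes C203 infection of mice.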

[2] = tested on: Pasteurella hemolytica 22C; assay: MIC, broth-dilution microtiter test (Table X); format: cell-based; settings: read-out: MIC
From the text: (§1) The MIC's in Table X were obtained using conventional broth-dilution microtiter tests.

[3] = tested on: Mycoplasma gallisepticum 29C; assay: MIC, broth-dilution microtiter test (Table X); format: cell-based; settings: Mycoplasmoides gallisepticum, read-out: MIC
From the text: as §1

Mycoplasma hyorhinis 29E = assay: MIC, broth-dilution microtiter test (Table X); format: cell-based; settings: read-out: MIC
From the text: as §1

Streptococcus sp. 19F = assay: MIC, broth-dilution microtiter test (Table X); format: cell-based; settings: read-out: MIC
From the text: as §1

[4] = tested on: Mycoplasma hyopneumoniae S5972; assay: MIC, broth-dilution microtiter test (Table X); format: cell-based; settings: Mesomycoplasma hyopneumoniae, read-out: MIC
From the text: as §1

[5] = tested on: Pasteurella multocida 60A; assay: MIC, broth-dilution microtiter test (Table X); format: cell-based; settings: Avian isolate, read-out: MIC
From the text: as §1

[6] = tested on: Staphylococcus aureus 19C; assay: MIC, broth-dilution microtiter test (Table X); format: cell-based
From the text: as §1

[7] = tested on: Pasteurella multocida 17E; assay: MIC, broth-dilution microtiter test (Table X); format: cell-based; settings: Bovine isolate, read-out: MIC
From the text: as §1

Mycoplasma synoviae 40A = assay: MIC, broth-dilution microtiter test (Table X); format: cell-based; settings: Mycoplasmopsis synoviae, read-out: MIC
From the text: as §1

[8] = tested on: Staphylococcus epidermidis EPI1; assay: MIC, standard agar-dilution assay (Table IX); format: cell-based; settings: Staphylococcus epidermidis EPI1; agar-dilution; read-out: MIC
[9] = tested on: Staphylococcus aureus S13E; assay: MIC, standard agar-dilution assay (Table IX); format: cell-based; settings: Staphylococcus aureus, S13E
[10] = tested on: Streptococcus pyogenes C203; assay: MIC, standard agar-dilution assay (Table IX); format: cell-based; settings: read-out: MIC
Escherichia coli N10 = assay: MIC, standard agar-dilution assay (Table IX); format: cell-based; settings: read-out: MIC
[11] = tested on: Staphylococcus aureus V41; assay: MIC, standard agar-dilution assay (Table IX); format: cell-based; settings: Staphylococcus aureus V41, Penicillin-resistant strain, read-out: MIC
[12] = tested on: Staphylococcus aureus X400; assay: MIC, standard agar-dilution assay (Table IX); format: cell-based; settings: Staphylococcus aureus X400, Methicillin-resistant strain, read-out: MIC
Staphyloccus aureus X1.1 = assay: MIC, standard agar-dilution assay (Table IX); format: cell-based, Staphylococcus aureus; settings: Staphylococcus aureus, read-out: MIC
Escherichia coli EC14 = assay: MIC, standard agar-dilution assay (Table IX); format: cell-based; settings: read-out: MIC
[13] = tested on: Haemophilus influenzae C.L.; assay: MIC, standard agar-dilution assay (Table IX); format: cell-based; settings: Ampicillin-sensitive strain, read-out: MIC
Escherichia coli TEM = assay: MIC, standard agar-dilution assay (Table IX); format: cell-based; settings: read-out: MIC
[14] = tested on: Haemophilus influenzae 76; assay: MIC, standard agar-dilution assay (Table IX); format: cell-based; settings: Haemophilus influenzae 76, Ampicillin-resistant strain, read-out: MIC
[15] = tested on: Streptococcus pneumoniae Park I; assay: MIC, standard agar-dilution assay (Table IX); format: cell-based; settings: Streptococcus pneumoniae Park I; agar-dilution; read-out: MIC
[16] = tested on: Streptococcus Group D 2041; assay: MIC, standard agar-dilution assay (Table IX); format: cell-based; settings: GROUPD2041, read-out: MIC
[17] = tested on: Staphylococcus epidermidis 222; assay: MIC, standard agar-dilution assay (Table IX); format: cell-based; settings: read-out: MIC
[18] = tested on: Streptococcus Group D X66; assay: MIC, standard agar-dilution assay (Table IX); format: cell-based; settings: read-out: MIC
Klebsiella X26 = assay: MIC, standard agar-dilution assay (Table IX); format: cell-based; settings: read-out: MIC
Pasteurella multocida [19] = assay: Pasteurella infection in one-day-old chicks, medicated drinking water (Table XIII); format: in vivo; settings: Administered in the available drinking water at 2 g/gal
Experimental: Many of the C-20 modified derivatives of this invention have also shown in vivo antibacterial activity against infections induced by gram-negative bacteria. Tables XII and XIII summarize the results of tests in which illustrative compounds were evaluated against a Pasteurella infection in one-day-old chicks. The compounds were administered parenterally or orally after challenge of the chicks with Pasteurella multocida (0.1 ml of a 10^-4 dilution of a twenty-hour tryptose broth culture of an avian P. multocida given subcutaneously). In these tests, unless indicated otherwise, all non-medicated infected chicks died within 24 hours of Pasteurella challenge. In the tests summarized in Table XII, the compounds were administered by subcutaneous injection at a dosage of 30 mg/kg, 1 and 4 hours post-challenge of the chicks with P. multocida. In the tests summarized in Table XIII the compounds were administered in medicated drinking water (at a level of 2 g/gal) available from 4 to 20 hours prior to challenge of the chicks with P. multocida and during the 3 -day test period.
^a Administered in the available drinking water at a concentration of […]

Pasteurella multocida [20] = assay: Pasteurella infection in one-day-old chicks, subcutaneous administration (Table XII); format: in vivo; settings: Administered subcutaneously, 30 mg/kg × 2, 1 and 4 hours post-challenge
Outline: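 Treatment was 30 mg/kg s.c., given twice (1 and 4 h after infection). The infection itself was induced in day-old chicks by s.c. injection of 0.1 ml of avian Pasteurella multocida culture (20-h tryptose broth, diluted 10^-4).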

Staphylococcus aureus = assay: MIC, broth-dilution microtiter test (Table X); format: cell-based; settings: read-out: MIC
From the text: as §1

[21] = Titratable groups in 66% aqueous DMF (Tables XIV-XVI); format: physicochemical
From the text: ^c Run in 66% aqueous DMF
^d Run in 66% aqueous DMF

MIC [3]: 1.56 µg/mL (≈ 1.77 µM)
MIC (Mycoplasma hyorhinis 29E): 50 µg/mL (≈ 56.7 µM)
MIC (Streptococcus sp. 19F): 1.56 µg/mL (≈ 1.77 µM)
MIC [4]: 0.39 µg/mL (≈ 0.443 µM)
MIC [5]: 12.5 µg/mL (≈ 14.2 µM)
MIC [6]: 3.12 µg/mL (≈ 3.54 µM)
MIC [7]: 12.5 µg/mL (≈ 14.2 µM)
MIC (Mycoplasma synoviae 40A): 0.097 µg/mL (≈ 0.11 µM)
SMILES: CCC1OC(=O)CC(O)C(C)C(OC2OC(C)C(O)C(N(C)C)C2O)C(CCN2CCC3CCCCC32)CC(C)C(=O)C=CC(C)=CC1COC1OC(C)C(O)C(OC)C1OC (stereo not shown) [Compound D44]
ED50 ([1]; C203, Oral): 37.9 mg/kg
ED50 ([1]; C203, sc, Subcutaneous): 0.69 mg/kg
MIC [2]: 12.5 µg/mL (≈ 14.2 µM)

SMILES: CCC1OC(=O)CC(O)C(C)C(OC2OC(C)C(O)C(N(C)C)C2O)C(CCN2CCc3ccccc32)CC(C)C(=O)C=CC(C)=CC1COC1OC(C)C(O)C(OC)C1OC (stereo not shown) [Compound D42]
MIC [8]: 0.5 µg/mL (≈ 0.571 µM)
MIC [9]: 0.5 µg/mL (≈ 0.571 µM)
MIC [10]: 0.5 µg/mL (≈ 0.571 µM)
MIC (Escherichia coli N10): > 128 µg/mL
MIC [11]: 0.25 µg/mL (≈ 0.286 µM)
MIC [12]: 0.5 µg/mL (≈ 0.571 µM)
MIC (Staphyloccus aureus X1.1): 5 µg/mL (≈ 5.71 µM)
MIC (Escherichia coli EC14): > 128 µg/mL
MIC [13]: 16 µg/mL (≈ 18.3 µM)
MIC (Escherichia coli TEM): > 128 µg/mL
MIC [14]: 8 µg/mL (≈ 9.14 µM)
MIC [15]: 0.25 µg/mL (≈ 0.286 µM)
MIC [16]: 2 µg/mL (≈ 2.29 µM)
MIC [17]: 0.25 µg/mL (≈ 0.286 µM)
MIC [2]: 50 µg/mL (≈ 57.1 µM)
MIC [3]: 0.097 µg/mL (≈ 0.111 µM)
MIC (Mycoplasma hyorhinis 29E): 3.12 µg/mL (≈ 3.57 µM)
MIC (Streptococcus sp. 19F): 0.78 µg/mL (≈ 0.891 µM)
MIC [4]: 0.097 µg/mL (≈ 0.111 µM)
MIC [5]: 25 µg/mL (≈ 28.6 µM)
MIC [6]: 0.78 µg/mL (≈ 0.891 µM)
MIC [7]: 12.5 µg/mL (≈ 14.3 µM)
MIC (Mycoplasma synoviae 40A): 0.195 µg/mL (≈ 0.223 µM)
MIC [18]: 2 µg/mL (≈ 2.29 µM)
MIC (Klebsiella X26): 64 µg/mL (≈ 73.1 µM)

SMILES: CCC1OC(=O)CC(O)C(C)C(OC2OC(C)C(O)C(N(C)C)C2O)C(CCN2CCC3CCCCC3C2)CC(C)C(=O)C=CC(C)=CC1COC1OC(C)C(O)C(OC)C1OC (stereo not shown) [Compound D29, 20-DH-DO-20-(decahydroisoquinolin-2-yl)desmycosin]
MIC [8]: 0.5 µg/mL (≈ 0.559 µM)
MIC [9]: 0.5 µg/mL (≈ 0.559 µM)
MIC [10]: 0.5 µg/mL (≈ 0.559 µM)
MIC (Escherichia coli N10): 64 µg/mL (≈ 71.5 µM)
MIC [11]: 0.5 µg/mL (≈ 0.559 µM)
MIC [12]: 0.5 µg/mL (≈ 0.559 µM)
MIC (Staphyloccus aureus X1.1): 0.5 µg/mL (≈ 0.559 µM)
MIC (Escherichia coli EC14): 64 µg/mL (≈ 71.5 µM)
MIC [13]: 4 µg/mL (≈ 4.47 µM)
MIC (Escherichia coli TEM): 16 µg/mL (≈ 17.9 µM)
MIC [14]: 4 µg/mL (≈ 4.47 µM)
ED50 ([1]; C203, Oral): 10.3 mg/kg
ED50 ([1]; C203, sc, Subcutaneous): 1.56 mg/kg
MIC [15]: 0.5 µg/mL (≈ 0.559 µM)
MIC [16]: 8 µg/mL (≈ 8.94 µM)
MIC [17]: 0.125 µg/mL (≈ 0.14 µM)
MIC [2]: 6.25 µg/mL (≈ 6.98 µM)
MIC [3]: 0.195 µg/mL (≈ 0.218 µM)
MIC (Mycoplasma hyorhinis 29E): 6.25 µg/mL (≈ 6.98 µM)
MIC (Streptococcus sp. 19F): 1.56 µg/mL (≈ 1.74 µM)
MIC [4]: 0.195 µg/mL (≈ 0.218 µM)
MIC [5]: 6.25 µg/mL (≈ 6.98 µM)
MIC [6]: 1.56 µg/mL (≈ 1.74 µM)
MIC [7]: 3.12 µg/mL (≈ 3.49 µM)
MIC (Mycoplasma synoviae 40A): < 0.048 µg/mL
MIC [18]: 2 µg/mL (≈ 2.23 µM)
MIC (Klebsiella X26): 32 µg/mL (≈ 35.7 µM)

SMILES: CCC1OC(=O)CC(O)C(C)C(OC2OC(C)C(O)C(N(C)C)C2O)C(CCN2CCCC2)CC(C)C(=O)C=CC(C)=CC1COC1OC(C)C(O)C(OC)C1OC (stereo not shown) [Compound D1, 20-DH-DO-20-(pyrrolidin-1-yl)desmycosin]
MIC [8]: 2 µg/mL (≈ 2.42 µM)
MIC [9]: 2 µg/mL (≈ 2.42 µM)
MIC [10]: 1 µg/mL (≈ 1.21 µM)
MIC (Escherichia coli N10): > 128 µg/mL
MIC [11]: 2 µg/mL (≈ 2.42 µM)
MIC [12]: 2 µg/mL (≈ 2.42 µM)
MIC (Staphyloccus aureus X1.1): 2 µg/mL (≈ 2.42 µM)
MIC (Escherichia coli EC14): > 128 µg/mL
MIC [13]: 16 µg/mL (≈ 19.3 µM)
MIC (Escherichia coli TEM): 128 µg/mL (≈ 155 µM)
Number of Deaths/Number Treated (Pasteurella multocida [19]): 9/10
MIC [14]: 16 µg/mL (≈ 19.3 µM)
Number of Deaths/Number Treated (Pasteurella multocida [20]): 0/10
ED50 ([1]; C203, Oral): > 50 mg/kg
ED50 ([1]; C203, sc, Subcutaneous): 1.2 mg/kg
MIC [15]: 0.5 µg/mL (≈ 0.605 µM)
MIC [16]: 16 µg/mL (≈ 19.3 µM)
MIC [17]: 1 µg/mL (≈ 1.21 µM)
MIC [2]: 6.25 µg/mL (≈ 7.56 µM)
MIC [3]: 12.5 µg/mL (≈ 15.1 µM)
MIC (Mycoplasma hyorhinis 29E): 50 µg/mL (≈ 60.5 µM)
MIC (Staphylococcus aureus): 0.78 µg/mL (≈ 0.943 µM)
MIC (Streptococcus sp. 19F): 6.25 µg/mL (≈ 7.56 µM)
MIC [4]: 12.5 µg/mL (≈ 15.1 µM)
MIC [5]: 6.25 µg/mL (≈ 7.56 µM)
MIC [7]: 6.25 µg/mL (≈ 7.56 µM)
MIC (Mycoplasma synoviae 40A): 0.39 µg/mL (≈ 0.472 µM)
MIC [18]: 32 µg/mL (≈ 38.7 µM)
MIC (Klebsiella X26): 16 µg/mL (≈ 19.3 µM)
pKa ([21]; Titratable groups): 9.5
pKa ([21]; Titratable groups (first value)): 7.9
